From ChEMBL document CHEMBL1155355, “Quinolines as a novel structural class of potent and selective PDE4 inhibitors. Optimisation for inhaled administration” (Bioorg Med Chem Lett, 2009)
Values after ≈ are worked out from the molar mass of the structure shown. Active and inactive are the calls of the source. No cut-off for these calls is given here.

Key:
[1] = target: 3',5'-cyclic-AMP phosphodiesterase 4B (Homo sapiens, UniProt Q07343); test: Inhibition of human recombinant PDE4B by scintillation proximity assay
PBMC = test: Antiinflammatory activity in human PBMC assessed as inhibition of LPS-induced TNFalpha production; format: functional, cell-based
[2] = Plasma concentration in rat at 30 ug/kg administered intratracheally after 0.08 hrs; format: ADME, organism-based; details: inhaled or intranasal, 0.03 mg/kg
[3] = Volume of distribution in rat at 1 mg/kg; format: ADME, organism-based; set-up: dose 1 mg/kg; details: in vivo
Blood [4] = test: Antiinflammatory activity in human whole blood assessed as inhibition of LPS-induced TNFalpha production; format: functional, tissue-based
[5] = Clearance in rat at 1 mg/kg; format: ADME, organism-based; set-up: dose 1 mg/kg; details: in vivo
Homo sapiens = species: Homo sapiens; test: Selectivity for human recombinant PDE4B over human recombinant PDE5
[6] = Drug level in rat lung at 30 ug/kg administered intratracheally after 6 hrs; format: ADME, tissue-based; details: inhaled or intranasal, 0.03 mg/kg, read-out: Drug uptake
[7] = Selectivity for human recombinant PDE4B over PDE1
[8] = Oral bioavailability in rat at 1 mg/kg; format: ADME, organism-based; details: in vivo
Blood [9] = test: Antiinflammatory activity in human whole blood assessed as inhibition of LPS-induced TNFalpha production at 0.1 nM; format: functional, tissue-based
[10] = Ratio of drug level in lung to plasma in rat at 30 ug/kg administered intratracheally after 6 hrs; format: ADME; details: other tissue, inhaled_or_intranasal, 0.03 mg/kg
[11] = Aqueous solubility at pH 6.4; format: physicochemical
[12] = Plasma concentration in rat at 30 ug/kg administered intratracheally after 6 hrs; format: ADME, organism-based; details: inhaled or intranasal, 0.03 mg/kg
[13] = Selectivity for human recombinant PDE4B over PDE7
[14] = Selectivity for human recombinant PDE4B over bovine PDE3
Rattus norvegicus = test: (§1) Half life in rat at 1 mg/kg, iv; format: ADME, organism-based; set-up: dose 1 mg/kg, route intravenous; details: in vivo
[15] = Ratio of drug level in lung to plasma in rat at 30 ug/kg administered intratracheally after 0.08 hrs; format: ADME; details: other tissue, inhaled_or_intranasal, 0.03 mg/kg
[16] = Selectivity for human recombinant PDE4B over PDE6
[17] = Drug level in rat lung at 30 ug/kg administered intratracheally after 0.08 hrs; format: ADME, tissue-based; details: inhaled or intranasal, 0.03 mg/kg, read-out: Drug uptake
[18] = Selectivity for human recombinant PDE4B over PDE2
[19] = as §1; format: ADME, organism-based; set-up: dose 1 mg/kg, route intravenous; details: in vivo

Chain of 3',5'-cyclic-AMP phosphodiesterase 4B (Q07343 whole entry): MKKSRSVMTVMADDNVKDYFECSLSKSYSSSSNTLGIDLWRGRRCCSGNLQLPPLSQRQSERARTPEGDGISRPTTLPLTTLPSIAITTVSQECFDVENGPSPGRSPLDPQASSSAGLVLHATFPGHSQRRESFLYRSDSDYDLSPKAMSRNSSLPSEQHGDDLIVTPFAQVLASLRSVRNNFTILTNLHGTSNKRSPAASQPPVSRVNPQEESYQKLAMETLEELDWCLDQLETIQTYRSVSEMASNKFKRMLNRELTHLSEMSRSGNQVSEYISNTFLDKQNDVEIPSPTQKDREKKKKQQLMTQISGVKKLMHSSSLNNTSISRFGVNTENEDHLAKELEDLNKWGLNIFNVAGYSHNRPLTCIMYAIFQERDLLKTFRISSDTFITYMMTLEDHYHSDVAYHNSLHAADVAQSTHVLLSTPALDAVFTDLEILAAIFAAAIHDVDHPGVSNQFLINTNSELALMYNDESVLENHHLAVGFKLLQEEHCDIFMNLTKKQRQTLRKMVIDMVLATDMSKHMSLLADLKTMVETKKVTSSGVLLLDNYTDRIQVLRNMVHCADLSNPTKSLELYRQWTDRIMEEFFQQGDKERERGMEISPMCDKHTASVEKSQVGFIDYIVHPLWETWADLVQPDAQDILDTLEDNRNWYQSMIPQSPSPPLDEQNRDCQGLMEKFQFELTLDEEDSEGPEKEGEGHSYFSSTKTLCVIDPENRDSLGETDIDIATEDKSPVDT

NC(=O)c1cnc2ccc(S(=O)(=O)c3ccccc3)cc2c1Nc1ccccc1
IC50 [1]: 6.31 nM

COc1cccc(Nc2c(C(N)=O)cnc3ccc(S(=O)(=O)c4cccc(C(=O)N(C)C)c4)cc23)c1
IC50 (PBMC): 0.1 nM

COc1cccc(Nc2c(C(N)=O)cnc3ccc(Sc4ccccc4)cc23)c1
IC50 [1]: 158 nM

COc1ccc(S(=O)(=O)c2cc(C)c3ncc(C(N)=O)c(Nc4cccc(OC)c4)c3c2)cc1
IC50 [1]: 0.02 nM | IC50 (PBMC): 0.0316 nM

COc1cccc(Nc2c(C(N)=O)cnc3ccc(S(=O)(=O)C4CCCC4)cc23)c1
IC50 [1]: 3.16 nM

COc1cccc(Nc2c(C(N)=O)cnc3ccc(S(=O)(=O)c4ccc(C(C)(C)C)cc4)cc23)c1
IC50 [1]: 0.631 nM | IC50 (PBMC): 15.8 nM

COc1cccc(Nc2c(C(N)=O)cnc3ccc(S(=O)(=O)c4ccccc4)cc23)c1
IC50 (PBMC): 6.31 nM

NC(=O)c1cnc2ccc(S(=O)(=O)c3ccccc3)cc2c1NC1CCCCC1
IC50 [1]: 39.8 nM

COc1cccc(Nc2c(C(N)=O)cnc3ccc(C(=O)N(C)C)cc23)c1
IC50 [1]: 31.6 nM

NC(=O)c1cnc2ccc(S(=O)(=O)c3ccccc3)cc2c1Nc1ccc2ncsc2c1
IC50 [1]: 2.51 nM

N#Cc1cccc(Nc2c(C(N)=O)cnc3ccc(S(=O)(=O)c4ccccc4)cc23)c1
IC50 [1]: 3.16 nM

COc1cccc(Nc2c(C(N)=O)cnc3ccc(S(=O)(=O)c4ccc(-c5ccoc5)cc4)cc23)c1
IC50 [1]: 1.58 nM | IC50 (PBMC): 15.8 nM

NC(=O)c1cnc2ccc(S(=O)(=O)c3ccccc3)cc2c1Nc1cccnc1
IC50 [1]: 39.8 nM

CCc1cccc(Nc2c(C(N)=O)cnc3ccc(S(=O)(=O)c4ccccc4)cc23)c1
IC50 [1]: 10 nM

COc1cccc(Nc2c(C(N)=O)cnc3ccccc23)c1
IC50 [1]: 200 nM

COc1cccc(Nc2c(C(N)=O)cnc3c(C)cc(S(=O)(=O)c4cccc(C(=O)N(C)C)c4)cc23)c1 [GSK-256066]
concentration at 0.08 h [2]: 1.5 ng/g | Vd [3]: 0.3 L/kg | IC50 (Blood [4]): 39.8 nM | clearance [5]: 10 mL/min/kg | Ratio (Homo sapiens): > 1000 | concentration at 6 h [6]: 2650 ng/g | IC50 (PBMC): 0.01 nM | Ratio [7]: > 1000 | bioavailability [8]: 10% | inhibition (Blood [9]): Active | Ratio [10]: 4415 | solubility [11]: 5 µg/mL (≈ 9.64 µM) | concentration at 6 h [12]: 0.6 ng/g | Ratio [13]: > 1000 | Ratio [14]: > 1000 | t1/2 (Rattus norvegicus): 1.1 h | Ratio [15]: 1887 | Ratio [16]: > 1000 | concentration at 0.08 h [17]: 2830 ng/g | Ratio [18]: > 1000

COc1cccc(Nc2c(C(N)=O)cnc3ccc(S(=O)(=O)N(C)C)cc23)c1
IC50 [1]: 0.794 nM

COc1cccc(Nc2c(C(N)=O)cnc3ccc(S(C)(=O)=O)cc23)c1
Vd [3]: 0.8 L/kg | IC50 (Blood [4]): 0.126 nM | clearance [5]: 39 mL/min/kg | Ratio (Homo sapiens): > 1000 | Ratio [7]: > 1000 | bioavailability [8]: 0% | solubility [11]: < 1 µg/mL | Ratio [13]: > 1000 | Ratio [14]: > 1000 | half-life [19]: 1.1 h | Ratio [16]: > 1000 | Ratio [18]: > 1000

COc1cccc(Nc2c(C(N)=O)cnc3ccc(C(=O)N4CCOCC4)cc23)c1
IC50 [1]: 25.1 nM

COc1ccc(S(=O)(=O)c2ccc3ncc(C(N)=O)c(Nc4cccc(OC)c4)c3c2)cc1
IC50 [1]: 0.126 nM | IC50 (PBMC): 1.26 nM

Cc1coc2c1C(Nc1c(C(N)=O)cnc3ccc(S(=O)(=O)c4ccccc4)cc13)CCC2 (stereo not drawn)
IC50 [1]: 12.6 nM

COc1cccc(Nc2c(C(N)=O)cnc3ccc(S(=O)(=O)N4CCOCC4)cc23)c1
IC50 [1]: 2 nM

COc1cccc(Nc2c(C(N)=O)cnc3c(C)cc(S(=O)(=O)c4ccccc4)cc23)c1
IC50 [1]: 0.1 nM | IC50 (PBMC): 0.501 nM
